Measured values from patent US8017618B2, “Antifolate agent combinations in the treatment of cancer” (Tracon Pharmaceuticals, Inc., priority 2006, dated 2011).
Read-outs that look alike come from different tables or passages of the source.

Tests used:
[1] = Oral and intravenous bioavailability study of MX via a single bolus administration to Sprague Dawley rats (plasma LC-MS/MS, noncompartmental PK); assay type: in vivo
Experimental: Oral and Intravenous Bioavailability Study of MX Via a Single Bolus Administration to Sprague Dawley Rats (Non-GLP). The studies described below were performed to evaluate the bioavailability of methoxyamine (MX) at the safe dose level by comparison of the pharmacokinetic parameters after single bolus oral and intravenous administrations of MX
Test Animals. Thirty male and thirty female Sprague Dawley rats, 250-350 g, 7-10 weeks of age, were used during the study.
Dose Preparation and Concentration. One dose solution was prepared on the same day of dose administration, adjusted for the 98% purity of the test article, to achieve a concentration of 4.00 mg/mL “active” MX, 816.77 mg of MX was dissolved into 5% dextrose in a 200-mL volumetric flask. The prepared solution was equally divided into two amber bottles designated for either oral or IV administration. Aliquots were taken for analysis at preparation and after dosing, transported on dry ice and stored at <−70° C.
Dose Administration. All animals were weighed on the day of dose administration. Individual animal doses were based on this body weight. A constant dose volume of 5 mL/kg was used. IV doses were administered through a single bolus injection into the tail vein using a 3-mL syringe attached to a 26G×1″ needle. The IV dose was administered at a rate of approximately 2 mL/min. Oral doses were administered as a single bolus with an 18G×2″ feeding needle attached to a 3-mL syringe.
Blood Sample Collection. Blood samples were collected at 5, 15, 30 mins, and 1, 2, 4, 6, 8, 12 and 24 hrs post-dose, with collection at two time points for each animal. Blood samples were collected through the jugular vein for the earlier time point and through the abdominal vein at sacrifice for the later time point. The blood was transferred from the drawing syringe into a 2 mL blood collection tube containing K3-EDTA as the anticoagulant and inverted to mix. Abdominal vein blood collection was performed immediately following CO2 euthanasia.
Plasma Sample Preparation and Storage Conditions. The blood tube was placed on wet ice before centrifugation for plasma preparation. Whole blood samples were centrifuged at 3,000 rpm at 4° C., for 10 min. Plasma was pipetted into tubes and placed on dry ice initially and later stored at <−70° C.
Mass spectrometry (MS). Mass spectrometric detection was performed by electrospray ionization with positive turbo spray, according to the specifications listed below.
Plasma Sample for LC-MS/MS Analysis. Individual plasma samples were thawed at ambient temperature and 250 μL was aliquoted for analysis if a dilution was not needed. Samples taken at 5 min to 1 hr from IV dosed animals or 15 min to 8 hr from orally dosed animals required 5-to 40-fold dilution to fall in the linear range of the method (1 to 1,000 ng/mL). For the samples requiring dilution, an appropriate volume was taken and mixed with blank rat plasma containing the same anticoagulant to make a total volume of 250 μL. The quantitation results were corrected with the dilution factor. Plasma was prepared for LC-MS/MS analysis as follows: • Plasma aliquots were vortexed for 30 seconds, and centrifuged at 14,000 rpm for 10 min to precipitate the interfering particles. • A 100 μL aliquot was taken from the supernatant and placed into a 1.5 mL microcentrifuge tube. • To the 100 μL plasma aliquot, 310 μL of H2O: formic acid (2:1), 30 μL of acenocoumerol (IS) in H2O (10 μg/mL) and 100 μL of diethylaminobenzaldehyde in 2:1H2O: formic acid solution (10 mg/mL) were added and mixed well. • The mixture was then incubated in a water bath at 80° C. for 2 hrs. After incubation, the supernatant was transferred into a HPLC vial for LC-MS/MS quantitation.
Methoxyamine (MX) Pharmacokinetics and Bioavailability Analysis. Pharmacokinetics Analysis. […]

topoisomerase II = assay: Topoisomerase II-mediated DNA cleavage of AP or MX-AP site substrates; assay type: biochemical; conditions: AP site at a topoisomerase II cleavage site, incubated with MX
Experimental: Analysis of the effect of AP site or MX-AP site on topoisomerase II-mediated DNA cleavage. A position-specific apurinic site was incorporated by replacing a single nucleoside with deoxyuridine at a topoisomerase II cleavage site and then removing the uracil base with uracil-DNA glycosylase, generating AP sites that further are incubated with MX to produce MX-AP sites (FIG. 5A).
First, it was determined whether APE has a differential effect between regular AP sites and MX-AP sites located in a position specific site for topo II cleavage.

HCT116 tumors = assay: Tumors in nude mice: HCT116 colon cancer cell line model; assay type: in vivo, female athymic HSD nude mice; conditions: MX 4 mg/kg with pemetrexed 150 mg/kg, five daily i.p. injections
Experimental: (§1) Tumors in Nude Mice. […] Animals received five daily intraperitoneal injections of either saline, pemetrexed alone (150 mg/kg), MX alone (4 mg/kg), or a combination of pemetrexed (150 mg/kg) and MX (4 mg/kg) with a pemetrexed to MX ratio of […].

NCI-H460 tumors = assay: Tumors in nude mice: NCI-H460 NSCLC cell line model; assay type: in vivo, female athymic HSD nude mice; conditions: MX 4 mg/kg with pemetrexed 150 mg/kg, five daily i.p. injections
Experimental: as §1

H460 cells = conditions: for formation of AP sites: pemetrexed 100, 200 and 400 μM, 24 hours, induction proportional to dose
Experimental: To determine the effect of pemetrexed+methoxyamine (MX) compared to pemetrexed alone on the number of AP sites generated, an aldehyde reactive probe (ARP) reagent was used to measure AP sites formed by pemetrexed and blocked by MX. ARP and MX have a similar reactivity with AP sites, and react specifically with an aldehyde group, an open-ring form of the AP sites. […] H460 cells were treated with pemetrexed (0, 100, 200 or 400 μm) for 24 hours. DNA (15 μg) was then extracted from cells and incubated with 1 mM ARP at 37° C. for 10 min. DNA was precipitated and washed with ethanol, then resuspended in TE buffer (10 mM Tris-HCl, pH 7.2, 1 mM EDTA) and denatured at 100° C. for 5 min. The DNA was then quickly chilled on ice and mixed with an equal amount of ammonium acetate (2 M). Single-stranded DNA was then immobilized on a nitrocellulose membrane using a vacuum filter device. The membrane was incubated with streptavidin-conjugated horseradish peroxidase at room temperature for 30 min and rinsed with washing buffer (20 mM Tris-HCl, 1 mM EDTA, 0.26 M NaCl, 1% Tween-20). ARP-AP sites were visualized with ECL reagents (Amersham, Piscataway, N.J.). […] The effect of the combination of 200 μM pemetrexed and 6 mM MX was viewed at 24 hrs, 48 hrs and 72 hrs.

[2] = both sexes, Sprague-Dawley, rat, in vivo, po, 20 mg/kg
[3] = female, Sprague-Dawley, rat, in vivo, 20 mg/kg
[4] = female, Sprague-Dawley, rat, in vivo, iv, 20 mg/kg
[5] = female, Sprague-Dawley, rat, in vivo, po, 20 mg/kg
[6] = male, Sprague-Dawley, rat, in vivo, 20 mg/kg
[7] = male, Sprague-Dawley, rat, in vivo, iv, 20 mg/kg
[8] = male, Sprague-Dawley, rat, in vivo, po, 20 mg/kg

Question: What does the source list for CON [MX, Methoxyamine]?
Answer: half-life ([1]; Sprague-Dawley, rat, in vivo, po): > 4 h; serum levels following oral dosing versus target Cmax associated with activity in mouse models of human cancer ([1]; Sprague-Dawley, rat, in vivo, po, 20 mg/kg): > 50 ng/mL; half-life ([1]; both sexes, Sprague-Dawley, rat, in vivo): 4 to 6 h; Tmax [1, 2]: 0.5 to 1 h; bioavailability [1, 2]: ~100%; Bioavailability (absolute, oral to IV AUC0-∞5 ratio) [1, 3]: 94%; F [1, 3]: 0.94; distribution phase complete (time postdose) ([1]; female, Sprague-Dawley, rat, in vivo, iv): approximately 2 hrs; AUC0-∞5 (AUC0-∞ normalized to a total dose amount of 5 mg MX) [1, 4]: 13892 ng·h/mL; AUC(0-inf) [1, 4]: 13100 ng·h/mL; AUC(0-t) [1, 4]: 13000 ng·h/mL; Cmax [1, 4]: 11000 ng/mL; Tmax [1, 4]: 0.08 h; half-life [1, 4]: 4.6 h; AUC(0-inf) [1, 5]: 12000 ng·h/mL; AUC(0-t) [1, 5]: 11600 ng·h/mL; Cmax [1, 5]: 2960 ng/mL; Tmax [1, 5]: 0.5 h; half-life [1, 5]: 5.7 h; Bioavailability (absolute, oral to IV AUC0-∞5 ratio) [1, 6]: 110%; F [1, 6]: 1.1; distribution phase complete (time postdose) ([1]; male, Sprague-Dawley, rat, in vivo, iv): approximately 2 hrs; AUC0-∞5 (AUC0-∞ normalized to a total dose amount of 5 mg MX) [1, 7]: 11284 ng·h/mL; AUC(0-inf) [1, 7]: 12700 ng·h/mL; AUC(0-t) [1, 7]: 12500 ng·h/mL; Cmax [1, 7]: 15500 ng/mL; Tmax [1, 7]: 0.08 h; half-life [1, 7]: 5.2 h; AUC0-∞5 (AUC0-∞ normalized to a total dose amount of 5 mg MX) [1, 8]: 12420 ng·h/mL; AUC(0-inf) [1, 8]: 13800 ng·h/mL; AUC(0-t) [1, 8]: 13600 ng·h/mL; Cmax [1, 8]: 2200 ng/mL; Tmax [1, 8]: 1 h; half-life [1, 8]: 4.2 h; clinical signs of toxicity ([1]; rats, 20 mg/kg body weight intravenously or orally): no clinical signs of toxicity; topoisomerase II-mediated cleavage of MX-AP sites (topoisomerase II): MX-AP sites are able to stimulate topoisomerase II-mediated DNA cleavage; reversal of resistance to pemetrexed chemotherapy (HCT116 tumors): reversed resistance; reversal of resistance to pemetrexed chemotherapy (NCI-H460 tumors): reversed resistance

Question: Which “number of detectable AP sites over time” value (H460 cells; 200 μM pemetrexed, 6 mM MX, 24 hrs, 48 hrs and 72 hrs) does the source give for Nc1nc2[nH]cc(CCc3ccc(C(=O)N[C@@H](CCC(=O)O)C(=O)O)cc3)c2c(=O)[nH]1 [pemetrexed, 2-[4-[2-(4-amino-2-oxo-3,5,7-triazabicyclo[4.3.0]nona-3,8,10-trien-9-yl)ethyl]benzoyl]aminopentanedioic acid] here?
Answer: number of detectable AP sites were reduced

Question: And the “formation of AP sites” value (H460 cells)?
Answer: induces the formation of AP sites

Question: What about the “formation of AP sites” value (H460 cells; listed as Pemetrexed) of the same compound?
Answer: induced the formation of AP sites
